Laboratory results taken from patent US20230158057A1, “COMPOSITIONS AND METHODS FOR THE TREATMENT OF PAIN” (Duke University, priority 2020, published 2023).
“Also recorded” adds a separate entry of the source.

Legend:
IFN-β = IFN-β ELISA on DRGs incubated ex vivo or cultured with ADU-S100; assay type: cell-based, mouse; details: for IFN-β levels in DRG lysate: ex vivo incubation 30 μM, 2 h
Experimental: ELISA: Mouse high-sensitivity IFN-α ELISA kit (42115-1) and IFN-β ELISA kit (42410-1) were purchased from PBL Assay Science and performed on serum, DRG lysate, or cell culture medium according to the manufacturer's instructions. Serum was obtained from whole blood through cardiac puncture at the time of euthanasia, followed by incubation for 30 minutes at 35° C. to promote clotting. Subsequently, samples were centrifuged at 4° C. at 2,500 xg for 15 minutes, followed by careful isolation of serum (supernatant). For ELISA on cell culture medium, samples were first concentrated approximately 10-fold using Amicon centrifugal filters (Millipore Sigma, UFC8030). DRGs were lysed by mechanical homogenization in a pH 7.4 CHAPS lysis buffer (FivePhoton Biochemicals, CIB-1-7.4-60) supplemented with a protease inhibitor cocktail (Millipore Sigma, 11697498001) and phosphatase inhibitor cocktail (FivePhoton Biochemicals, PIC1). For DRG lysate, Pierce BCA (ThermoFisher, 23225) assays were performed according to the manufacturer's instructions to quantify protein concentration, and ELISA results are reported normalized to protein concentration (pg/mg DRG tissue). To measure IFN-β levels in cerebrospinal fluid (CSF) isolated by spinal catheter from NHPs, we utilized a cynomolgus IFN-β ELISA kit (PBL Assay Science, 46415-1), which was performed using 50 μl CSF according to the manufacturer's instructions. Standard curves were performed in all experiments and values interpolated using GraphPad Prism version.

[1] = system: rhesus macaques (Macaca mulatta); assay: Menthol gel-induced cold allodynia, cold-water tail-withdrawal assay in non-human primates; assay type: in vivo
Experimental: Behavioral testing in non-human primates: Five adult rhesus monkeys (Mucaca mulatta, 9.3-13.8 kg) were maintained in an AAALAC-approved facility at Wake Forest University School of Medicine in accordance with Wake Forest University IACUC regulations. Animals were individually housed in temperature- and humidity-controlled species-specific rooms maintained in a 12 h light/12 h dark cycle. All animals have been previously trained in the tail-withdrawal assay. All experimental procedures were conducted in accordance with the Guide for the Care and Use of Laboratory Animals standards adopted by the NIH. Drug infusion was through a previously implanted spinal catheter. Behavioral testing was performed by an experimenter who was blinded to the drug being administered. A cold-water tail-withdrawal assay was used to evaluate nociceptive responses to 16° C. water with a cut-off of 20 sec. 0.3 mL of 2% menthol gel (Millipore Sigma) was applied to the tail for 3 minutes to induce transient and reversible cold allodynia.

LLC lung tumor nodules = assay: Lung metastases after intrafemoral LLC inoculation; assay type: in vivo, mouse; details: d17, 20 mg/kg i.p., vs vehicle or ZA
Description: Visual and immunohistochemical analysis of lung metastases. Mice were deeply anesthetized with isoflurane and perfused intracardially with PBS, followed by 4% PFA. After the perfusion, lungs were removed from mice and post-fixed in the same fixative overnight. The samples were then dehydrated with a 30% sucrose solution, embedded in O.C.T. (Tissue Tek), and cryosectioned to produce 8 μm thick sections. For Hematoxylin and Eosin (H & E) staining, lung sections were rehydrated and stained with 0.1% Hematoxylin and 0.5% Eosin in sequence. After dehydration and clearance with HistoClear (Electron

DRG nociceptors = assay: Whole-mount DRG patch clamp from tumor-bearing mice ex vivo; assay type: cell-based, mouse; details: 30 μM, 2 h, DRGs isolated d11
Description: Whole-cell patch clamp recordings in whole-mount DRGs ex vivo. Four-week-old male C57BL/6 mice were used to establish the bone cancer pain model by intrafemoral inoculation of LLC, leading to nociceptor hyperexcitability in the ipsilateral L3-L5 DRGs which extend afferent nerve fibers to the tumor-bearing femur. […] 11d after tumor implantation, mice were euthanized followed by careful isolation of L3-L5 DRGs, which were placed in oxygenated artificial cerebrospinal fluid. DRGs were lightly digested for 20 minutes using an enzymatic mixture consisting of 0.32 ml collagenase A (1 mg/mL) and Trypsin (0.25%). Intact DRGs were then incubated in ACSF oxygenated with 95% O2 and 5% CO2, supplemented with vehicle (PBS) or 30 μM DMXAA in PBS for 2 hours at 37° C. Following incubation, DRGs were transferred to a recording chamber, where neurons could be visualized using a 40× water-immersion objective on an Olympus BX51WI microscope. Patch pipettes were pulled from borosilicate capillaries (Chase Scientific Glass Inc.) and filled with a pipette solution containing (in mM): 126 potassium gluconate, 10 NaCl, 1 MgCl2, 10 EGTA, 2 Na-ATP, and 0.1 Mg-GTP, adjusted to pH 7.3 with KOH. The external solution was composed of (in mM): 140 NaCl, 5 KCl, 2 CaCl2, 1 MgCl2, 10 HEPES, 10 glucose, adjusted to pH 7.4 with NaOH. […] Data were recorded and analyzed using the pClamp10 (Axon Instruments) software.

Row | SMILES | IFN-β in culture medium (IFN-β; cultured DRGs from STING-WT mice) | increase in IFN-β in STING-KO and STING-cKO DRGs (IFN-β; ex vivo incubation) | IFN-β levels in DRG lysate (IFN-β; STINGfx/fx, Nav1.8-Cre mice) | IFN-β levels in DRG lysate (IFN-β; WT mice) | 2% menthol gel-induced cold allodynia ([1]; i.t. catheter) | intrathecal dose producing analgesia in NHPs ([1]; vs. 35 nmol in murine models) | lung tumor nodules (LLC lung tumor nodules) | current-evoked action potential firing (DRG nociceptors) | rheobase of nociceptors (DRG nociceptors)
1 | Nc1ncnc2c1ncn2[C@@H]1O[C@@H]2COP(=O)([S-])O[C@@H]3[C@H](O)[C@@H](COP([O-])(=S)O[C@H]2[C@H]1O)O[C@H]3n1cnc2c(N)ncnc21.[Na+].[Na+] (stereo partly drawn) [ADU-S100, (2′-5′)-[P(R)]-5′-O-[(R)-hydroxymercaptophosphinyl]-P-thioadenylyl-adenosine cyclic dinucleotide] | increased IFN-α and IFN-β in the culture medium | abolished in STING-KO mice and largely abolished in STING-cKO mice | significant elevation of IFN-β in STINGfx/fx; Nav1.8-Cre DRG lysate, but this increase was significantly lower than that seen in WT mice | IFN-β levels in DRG lysate were increased | long-lasting and dose-dependent analgesia; also recorded: attenuated 2% menthol gel-induced cold allodynia in a dose-dependent manner | 3 nmol | fewer lung tumor nodules |  | 
2 | Cc1ccc2c(=O)c3cccc(CC(=O)O)c3oc2c1C [DMXAA, 2-(5,6-dimethyl-9-oxo-9H-xanthen-4-yl)acetic acid] |  |  |  |  |  |  |  | sharply reduced the cancer-induced increase in current-evoked action potential firing | markedly increased the rheobase of nociceptors
